In patent publication US10030260B2, “Inducible reconstitution and real-time quantitative kinetic system for the study of intramembrane enzymes” (THE JOHNS HOPKINS UNIVERSITY, priority 2012, dated 2018):
Numbering of substitutions follows the chain as printed. “Also recorded” adds a separate entry of the source. Where a SMILES comes first, the peptide text is derived from it. The star is where a group is joined. FITC = O=C1OC2(c3ccc(O)cc3Oc3cc(O)ccc32)c2ccc(NC(=S)*)cc21; βAla = NCCC(=O)O

Assays:
[1] = test system: three different rhomboid proteases; experiment: Manual 384-well compound screen in proteoliposomes; type: biochemical; conditions: 1 hour at 37° C., no compound pre-incubation
Method: FIG. 12. Assay Evaluation in Manual Compound Screens. […] B. We assayed 3 different rhomboid proteases independently in hand-pipetted 384-well screens against a custom-assembled library of protease inhibitors, combinatorial compounds, and membrane enzyme inhibitors (all in DMSO). Assays were conducted for 1 hour at 37° C. and fluorescence intensity was read every 2 minutes. Graphed are the 60 minute values, with the last (rightmost) 7 wells being the isocoumarin inhibition controls.
An important consideration is assay suitability for HTS, which we evaluated by manually screening a diverse panel of class-specific protease inhibitors (natural products, sulphonyl fluorides, hydroxamate-based metalloprotease inhibitors, vinyl sulfones, isocoumarins, chloromethyl ketones, proteasomal inhibitors, aspartyl protease inhibitors, cysteine protease inhibitors), a combinatorial library of peptide diphenyl-phosphonates, and over a dozen lipid enzyme inhibitors/drugs (some of which are known to affect other intramembrane proteases). We hand-assembled this library of 111 compounds because it represents likely candidates for real rhomboid inhibitors on the one hand, and on the other poses challenges for assay performance because most are chemically-reactive (warhead) molecules. […]

E. coli GlpG = target: T1, E. coli GlpG (Escherichia coli, UniProt P09391); experiment: Inducible reconstitution and real-time proteolysis assay in proteoliposomes; type: biochemical
T1 construct: GST (cleaved yes); made in house; host or cells: E. coli C43 (DE3)
Method: (§1) 30 μg of E. coli liposomes were mixed with 50 mM NaAcetate pH 4.0, 150 mM NaCl, 0.05 to 500 pmoles of rhomboid enzyme, and 20 to 1600 pmoles of FITC-substrate. This co-reconstitution mix was diluted 20-fold with 12.5 mM NaAcetate pH 4.0, 37.5 mM NaCl to reduce detergent below its critical micelle concentration and promote reconstitution. Proteoliposomes were collected by ultracentrifugation at 600,000 g for 20 minutes in an Optima MAX-XP ultracentrifuge (Beckman). […] Fluorescence was monitored every minute using monochromators set to wavelengths of 485±20 nm (excitation) and 528±20 nm (emission). Alternatively, time points were quenched with equal volumes of 2× Tricine SDS-sample buffer, resolved on 16% Tricine gels (Life Technologies), and imaged with a blue laser and fluorescein emission filters on a Typhoon Imager (GE Healthcare). APP+Spi7-Flag and HA-EcGlpG were co-reconstituted as above, resolved by SDS-PAGE, detected by 2-color anti-Flag and anti-HA western analysis, and imaged with an Odyssey infrared scanner (LiCor Biosciences).
All data were analyzed and graphed using the R language and environment. Initial rates were extracted from real-time curves between 4 and 14 minutes using the slope (m) in a linear model: y=mx+b. Initial rates versus substrate concentration of reconstituted reactions were modeled using the Hill-modified Michaelis Menten equation: v0=(Vmax*[S0]^h)/(Km^h+[S0]^h). […]
To establish controlled conditions for a Michaelis-Menten kinetic system, we lowered GlpG levels to 4 pmoles while varying substrate from 20 to 1600 pmoles and co-reconstituted both into 200 nm proteoliposomes comprised of E. coli lipids to preserve its physiological environment as much as possible (FIG. 9A). […] Finally, FITC-TatA reconstituted in both orientations in approximately equal proportions, as quantified by reacting single engineered cysteines with membrane-impermeable dyes (FIG. 3A). […]

[2] = target: T2, catalytically inactive TMR-GlpG (C104A+W196TMR+H254A) (Escherichia coli, UniProt P09391, C104A/H254A/W196C); experiment: FRET analysis of protease-substrate affinity in membranes; type: binding; conditions: in proteoliposomes
T2 construct: His (N); TMR (tetramethylrhodamine-5-maleimide) dye on the side chain of Cys196; made in house
T2 sequence (P09391 1-276 C104A/W196C/H254A): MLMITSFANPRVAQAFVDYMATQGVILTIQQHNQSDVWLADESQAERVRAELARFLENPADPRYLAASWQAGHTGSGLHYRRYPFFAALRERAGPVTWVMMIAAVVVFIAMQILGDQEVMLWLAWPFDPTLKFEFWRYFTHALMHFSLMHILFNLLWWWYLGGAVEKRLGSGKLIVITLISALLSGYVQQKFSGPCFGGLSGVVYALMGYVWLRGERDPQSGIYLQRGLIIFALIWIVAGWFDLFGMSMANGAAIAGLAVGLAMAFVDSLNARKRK
Method: Purified N-terminally His-tagged EcGlpG H254A+C104A+W196C protein was labeled at the single cysteine residue with the FRET acceptor tetramethylrhodamine-5-maleimide (TMR) (Life Technologies). Reconstitutions into E. coli liposomes were performed as described above, except that 30 pmoles of TMR-labeled protein was mixed with 25-800 pmoles of the FITC-TatA ligand. Following reconstitution, the samples were incubated at 37° C. in a Synergy H4 Hybrid plate reader. Fluorescence was measured with excitation at 485 nm and emission from 510-600 nm in 5 nm intervals. The FRET interaction was calculated at the 580 nm emission wavelength by subtracting the TMR-labeled GlpG protein alone and the FITC-TatA alone samples from the sample containing both macromolecules.

HA-EcGlpG = target: T3, HA-EcGlpG (Escherichia coli, UniProt P09391); experiment: Proteolysis assay in detergent micelles; type: biochemical; conditions: faster in detergent
T3 construct: GST (cleaved yes); made in house; host or cells: E. coli C43 (DE3)
T3 sequence (P09391 1-276): T2 sequence (P09391 1-276 C104A/W196C/H254A) with A104C, C196W, A254H
Method: Cleavage reactions of APP+Spi7-Flag were performed as described previously and imaged with an Odyssey infrared scanner (LiCor Biosciences) (Baker and Urban, 2012; Baker et al., 2007). […] Reactions were quenched and analyzed on 16% tricine gels as above. Actual substrate concentrations were calibrated using FITC-TatA standards analyzed in parallel.

[3] = target: T4, inactive EcGlpG mutants (His-EcGlpG C104A+H254A; HA-EcGlpG S201A+H254A) (Escherichia coli, UniProt P09391, C104A/H254A); type: binding; conditions: co-precipitation
T4 construct: made in house
Method: (§2) 2.5 μM His-tagged EcGlpG C104A+H254A with 70 μM FITC-TatA was incubated with pre-equilibrated Ni^2+-NTA resin (Qiagen) for 3 hours at room temperature. The resin was washed, and bound proteins were eluted with SDS-sample buffer for 30 minutes. FITC-TatA was detected as above using a 16% Tricine gel and a Typhoon Imager. His-EcGlpG C104A+H254A was detected by western blot with the mouse anti-penta-His antibody (Qiagen), and imaged with an Odyssey infrared scanner (LiCor Biosciences).
(§3) Two Superdex 200 PC 3.2/30 high-resolution gel filtration columns (GE Healthcare) were connected in tandem to a ProStar 410 HPLC system (Agilent/Varian), and equilibrated with 9.5 μM FITC-TatA in 2 mM phosphate buffer pH 7.4, 25 mM Tris pH 7.4, 120 mM NaCl, 0.15% Sarkosyl, 0.1% DDM, 1 mM DTT. 20 μM HA-EcGlpG S201A+H254A was preincubated with 9.5 μM FITC-TatA, and 50 μL was injected using an Autosampler 410 onto the columns at a flow rate of 0.05 mL/minute. Elution was monitored by absorbance at all wavelengths between 200 to 600 nm simultaneously using a PDA 330 detector. The FITC-TatA peak was quantified relative to known FITC-TatA concentration standards that were run on the columns equilibrated with 9.5 μM FITC alone in buffer. Conventional gel filtration was conducted under similar conditions, except the columns were equilibrated with buffer lacking FITC-TatA.

[4] = target: inactive EcGlpG mutants (His-EcGlpG C104A+H254A; HA-EcGlpG S201A+H254A); type: binding, Escherichia coli; conditions: gel filtration and co-precipitation, non-equilibrium; read-out: Kd (low affinity)
Method: as §2, §3

EcGlpG = EcGlpG (Escherichia coli, UniProt P09391); conditions: 37° C. for 3 hours
Method: Rhomboid protein in 50 mM Tris pH 7.4, 150 mM NaCl, 0.1% DDM was incubated with either 10% DMSO only or carrying […] JLK6 at 37° C. for 3 hours, purified using a C4 ZipTip, and analyzed by mass spectrometry as described previously (Pierrat et al., 2011).

HA-PsAarA = target: T5, HA-PsAarA (Providencia stuartii, UniProt P46116); experiment: Real-time kinetics of substrate variants in proteoliposomes; type: biochemical; conditions: in words
T5 construct: GST (cleaved yes); made in house; host or cells: E. coli C43 (DE3)
T5 sequence (P46116 whole entry, looked up): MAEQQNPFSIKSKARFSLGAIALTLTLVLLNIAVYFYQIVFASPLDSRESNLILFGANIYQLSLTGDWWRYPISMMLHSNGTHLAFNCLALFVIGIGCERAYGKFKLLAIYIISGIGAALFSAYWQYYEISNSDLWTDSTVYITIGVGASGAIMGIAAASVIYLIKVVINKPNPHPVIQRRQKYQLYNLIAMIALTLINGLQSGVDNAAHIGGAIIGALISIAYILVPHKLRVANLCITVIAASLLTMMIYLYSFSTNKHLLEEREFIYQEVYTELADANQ
Method: as §1
All data were analyzed and graphed using the R language and environment. Initial rates were extracted from real-time curves between 4 and 14 minutes using the slope (m) in a linear model: y=mx+b. […]

T1 sequence (P09391 whole entry): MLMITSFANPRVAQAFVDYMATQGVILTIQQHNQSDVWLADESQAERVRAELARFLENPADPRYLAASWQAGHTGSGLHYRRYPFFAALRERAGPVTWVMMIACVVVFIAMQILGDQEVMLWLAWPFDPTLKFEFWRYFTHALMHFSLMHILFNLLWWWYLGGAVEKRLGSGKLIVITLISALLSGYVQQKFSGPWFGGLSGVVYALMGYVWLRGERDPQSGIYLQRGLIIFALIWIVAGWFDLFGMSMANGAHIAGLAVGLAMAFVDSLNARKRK
Chain of EcGlpG (P09391 whole entry): as above
T4 sequence (P09391 whole entry C104A/H254A): as the sequence (P09391 whole entry) above, with C104A, H254A counted along it

O=c1occc2ccccc12 [isocoumarin]
inhibition in screen [1]: obvious evidence of inhibition of all three rhomboid proteases

CC[C@H](C)[C@H](NC(=O)[C@H](CC(C)C)NC(=O)[C@@H](NC(=O)[C@@H](NC(=O)[C@H](CC(C)C)NC(=O)[C@H](CC(C)C)NC(=O)[C@H](C)NC(=O)[C@@H](NC(=O)[C@@H](NC(=O)[C@@H](NC(=O)[C@H](CC(C)C)NC(=O)[C@H](CCC(N)=O)NC(=O)[C@H](Cc1c[nH]c2ccccc12)NC(=O)[C@@H]1CCCN1C(=O)[C@H](CO)NC(=O)CNC(=O)[C@H](Cc1ccccc1)NC(=O)[C@H](C)NC(=O)[C@H](C)NC(=O)[C@@H](NC(=O)[C@H](C)NC(=O)[C@@H](NC(=O)[C@@H](NC(=O)[C@H](CO)NC(=O)[C@H](CCC(=O)O)NC(=O)[C@H](CCSC)NC(=O)CCNC(=S)Nc1ccc2c(c1)C(=O)OC21c2ccc(O)cc2Oc2cc(O)ccc21)[C@@H](C)O)[C@@H](C)CC)[C@@H](C)O)[C@@H](C)CC)[C@@H](C)CC)[C@@H](C)CC)[C@@H](C)CC)[C@@H](C)CC)C(=O)N[C@@H](Cc1ccccc1)C(=O)NCC(=O)N[C@H](C(=O)N[C@@H](CCCCN)C(=O)N[C@@H](CCCCN)C(=O)N[C@@H](CC(C)C)C(=O)N[C@@H](CCCNC(=N)N)C(N)=O)[C@@H](C)O [FITC-TatA] ({FITC-βAla}-MESTIATAAFGSPWQLIIIALLIILIFGTKKLR-NH2)
KM (E. coli GlpG; proteoliposomes of E. coli lipids, relative to phospholipid): 0.14±0.02 mole percent
kcat (E. coli GlpG; proteoliposomes, enzyme saturated with substrate): 0.0063 ± 0.00021 s⁻¹
apparent Kd [2]: 0.08±0.026 mole percent
kcat in detergent relative to proteoliposomes (HA-EcGlpG): ~6.5 fold
FITC-TatA eluting with His-EcGlpG [3]: < 0.1%
Kd [4]: > 800 µM

COc1oc(=O)c2cc(N)ccc2c1Cl [JLK6, reference compound]
effect on fluorescence signal and cleavage product of FITC-TatA cleavage (E. coli GlpG; proteoliposomes, 37° C., pretreatment with inhibitor): blocked generation of the fluorescence signal and cleavage product; also recorded: abrogated signal to background
mass shift of enzyme after incubation with inhibitor (EcGlpG): complete mass shift

Spitz: Drosophila signaling molecule Spitz residues 135-168 of 186, FITC-labelled substrate
kcat and KM relative to TatA (HA-PsAarA): lower kcat without any significant change in KM
